Here are results for two compounds from US12721821B2, “Plant essential oil amino acid composition and preparation method therefor” (COCRYSTAL TECHNOLOGY (JIAXING) CO., LTD, priority 2021, dated 2026).

This series can be described thus: Vapor pressure from thermogravimetric analysis (TGA), kept at 80° C. for 100 minutes. Conditions: calculated from weight loss rate. Type of series: physicochemical. The protocol: For thermogravimetric analysis (TGA) method, instrument model: Netzsch TG 209F3 thermogravimetric analyzer detection, temperature: 80° C. for 100 minutes, purge gas: 25 mL/min.
Thymol and/or carvacrol and L-proline and/or sarcosine were added to a ball mill according to the compositions shown in Table 2, and vibrated at a vibrating frequency of 30 Hz for a vibrating time of 20 minutes to obtain the compositions. The compositions were subjected to thermogravimetric analysis (TGA), kept at 80° C. for 100 minutes, and the vapor pressure of thymol and/or carvacrol and the compositions thereof were calculated according to the formula:
[formula] • wherein m is the mass of the sample at time t, −dm/dt is the weight loss rate per unit area, p is the saturated vapor pressure, α is the vaporization constant, T is the absolute temperature, R is the gas constant, and M is the molecule mass of the evaporated substance. Under vacuum condition, α=1. α can be considered as a constant when a protective gas is present.

For `Cc1ccc(C(C)C)c(O)c1` [thymol], the “vapor pressure (Pa) at 80° C.” value is 333 Pa.
On to `Cc1ccc(C(C)C)cc1O` [carvacrol], for which the “vapor pressure (Pa) at 80° C.” value is reported as 242 Pa.
